Assay results published in ChEMBL document CHEMBL4673260, “Pyridine alkaloids with activity in the central nervous system” (Bioorg Med Chem, 2020).

Tests used:
[1] = molecular target: Alpha-2A adrenergic receptor (Homo sapiens) (UniProt P08913); test: Inhibition of human adrenergic receptor alpha2A expressed in CHO-K1 cells at 10 uM relative to control; type: cell-based
Homo sapiens [2] = species on record: Homo sapiens; test: Inhibition of human 5HT-6 receptor at 10 uM relative to control
Homo sapiens [3] = species on record: Homo sapiens; test: Inhibition of Calcium-activated potassium channel channel (unknown origin); conditions: concentration not given here
Homo sapiens [4] = species on record: Homo sapiens; test: Inhibition of human adenosine transporter at 10 uM relative to control
Homo sapiens [5] = species on record: Homo sapiens; test: Inhibition of GABA receptor chloride/TBOB site (unknown origin) at 10 uM relative to control
[6] = molecular target: Neuropeptide Y receptor type 2 (Homo sapiens) (UniProt P49146); test: Inhibition of human NPY2R expressed in CHO-K1 cells at 10 uM relative to control; type: cell-based
[7] = molecular target: Histamine H2 receptor (Homo sapiens) (UniProt P25021); test: Inhibition of human histamine H2 receptor expressed in CHO-K1 cells at 10 uM relative to control; type: cell-based
[8] = molecular target: Endothelin-1 receptor (Homo sapiens) (UniProt P25101); test: Inhibition of human ET-A at 10 uM relative to control
[9] = molecular target: B2 bradykinin receptor (Homo sapiens) (UniProt P30411); test: Inhibition of BKR2 (unknown origin) at 10 uM relative to control
[10] = molecular target: Alpha-1A adrenergic receptor (Homo sapiens) (UniProt P35348); test: Inhibition of human adrenergic receptor alpha1A expressed in CHO-K1 cells at 10 uM relative to control; type: cell-based
[11] = molecular target: Sigma intracellular receptor 2 (Homo sapiens) (UniProt Q5BJF2); test: Inhibition of sigma 2 receptor (unknown origin) at 10 uM relative to control
[12] = molecular target: Gamma-aminobutyric acid receptor subunit alpha-1 (Homo sapiens) (UniProt P14867); test: Inhibition of GABA-A alpha1 BDZ site (unknown origin) at 10 uM relative to control
[13] = molecular target: Type-1 angiotensin II receptor (Homo sapiens) (UniProt P30556); test: Inhibition of human AT1 receptor expressed in CHO-K1 cells at 10 uM relative to control; type: cell-based
Acetylcholinesterase = Acetylcholinesterase (Homo sapiens, UniProt P22303); test: Inhibition of acetylcholinesterase (unknown origin) at 10 uM relative to control
[14] = molecular target: Thromboxane A2 receptor (Homo sapiens) (UniProt P21731); test: Inhibition of human Thromboxane A2 at 10 uM relative to control
[15] = molecular target: Muscarinic acetylcholine receptor M2 (Homo sapiens) (UniProt P08172); test: Inhibition of human muscarinic M2 receptor expressed in CHO-K1 cells at 10 uM relative to control; type: cell-based
[16] = molecular target: 5-hydroxytryptamine receptor 2C (Homo sapiens) (UniProt P28335); test: Inhibition of human 5HT-2C receptor at 10 uM relative to control
[17] = molecular target: Alpha-1B adrenergic receptor (Homo sapiens) (UniProt P35368); test: Inhibition of human adrenergic receptor alpha1B expressed in CHO-K1 cells at 10 uM relative to control; type: cell-based
[18] = molecular target: 5-hydroxytryptamine receptor 1A (Homo sapiens) (UniProt P08908); test: Inhibition of human 5HT-1a receptor at 10 uM relative to control
[19] = molecular target: Cysteinyl leukotriene receptor 1 (Homo sapiens) (UniProt Q9Y271); test: Inhibition of human CYSLTR1 expressed in CHO-K1 cells at 10 uM relative to control; type: cell-based
[20] = molecular target: Sodium-dependent dopamine transporter (Homo sapiens) (UniProt Q01959); test: Inhibition of human dopamine transporter expressed in CHO-K1 cells at 10 uM relative to control; type: cell-based
[21] = molecular target: Adenosine receptor A2a (Homo sapiens) (UniProt P29274); test: Inhibition of human adenosine receptor A2A expressed in HEK293 cells at 10 uM relative to control; type: cell-based
[22] = molecular target: Alpha-2B adrenergic receptor (Homo sapiens) (UniProt P18089); test: Inhibition of human adrenergic receptor alpha2B expressed in CHO-K1 cells at 10 uM relative to control; type: cell-based
[23] = molecular target: Adenosine receptor A1 (Homo sapiens) (UniProt P30542); test: Inhibition of human adenosine receptor A1 expressed in CHO-K1 cells at 10 uM relative to control; type: cell-based
Homo sapiens [24] = species on record: Homo sapiens; test: Inhibition of human delta 2-type opioid receptor at 10 uM relative to control
D(3) dopamine receptor = D(3) dopamine receptor (Homo sapiens, UniProt P35462); test: Inhibition of human dopamine D3 receptor expressed in CHO-K1 cells at 10 uM relative to control; type: cell-based
[25] = molecular target: Neuronal acetylcholine receptor; alpha4/beta2 (Rattus norvegicus, UniProt P09483+P12390); test: Displacement of [3H]epibatidine from alpha4beta2 nAChR in rat frontal cortex membrane by scintillation counting method; type: cell membranes
[26] = molecular target: 5-hydroxytryptamine receptor 1D (Homo sapiens) (UniProt P28221); test: Inhibition of 5HT-1D receptor (unknown origin) at 10 uM relative to control
Homo sapiens [27] = species on record: Homo sapiens; test: Inhibition of human PDE3A1A at 10 uM relative to control
[28] = molecular target: D(2) dopamine receptor (Homo sapiens) (UniProt P14416); test: Inhibition of human dopamine D2S receptor expressed in CHO-K1 cells at 10 uM relative to control; type: cell-based
Homo sapiens [29] = species on record: Homo sapiens; test: Inhibition of Glutamate receptor ionotropic NMDA glycine,strychnine-sensitive site (unknown origin) at 10 uM relative to control
Homo sapiens [30] = species on record: Homo sapiens; test: Inhibition of Glutamate receptor ionotropic NMDA agonist site (unknown origin) at 10 uM relative to control
[31] = molecular target: 5-hydroxytryptamine receptor 3A (Homo sapiens) (UniProt P46098); test: Inhibition of 5HT-3 (unknown origin) receptor at 10 uM relative to control
Histamine H3 receptor = Histamine H3 receptor (Homo sapiens, UniProt Q9Y5N1); test: Inhibition of human histamine H3 receptor expressed in CHO-K1 cells at 10 uM relative to control; type: cell-based
[32] = molecular target: 5-hydroxytryptamine receptor 2A (Homo sapiens, UniProt P28223); test: Inhibition of human 5HT-2A receptor at 10 uM relative to control
Homo sapiens [33] = species on record: Homo sapiens; test: Inhibition of NOS (unknown origin) at 10 uM relative to control
[34] = molecular target: 5-hydroxytryptamine receptor 4 (Homo sapiens) (UniProt Q13639); test: Inhibition of 5HT-4 (unknown origin) receptor at 10 uM relative to control
[35] = molecular target: Muscarinic acetylcholine receptor M1 (Homo sapiens) (UniProt P11229); test: Inhibition of human muscarinic M1 receptor expressed in CHO-K1 cells at 10 uM relative to control; type: cell-based
[36] = molecular target: D(4) dopamine receptor (Homo sapiens) (UniProt P21917); test: Inhibition of human dopamine D4.4 receptor expressed in CHO-K1 cells at 10 uM relative to control; type: cell-based
L-type calcium channel = L-type calcium channel (Homo sapiens, UniProt O60840+Q01668+Q13698+Q13936); test: Inhibition of L-type calcium channel (unknown origin) at 10 uM relative to control; type: protein assay
Homo sapiens [37] = species on record: Homo sapiens; test: Inhibition of human protein kinase A at 10 uM relative to control

Sequence of Histamine H3 receptor (Q9Y5N1 whole entry): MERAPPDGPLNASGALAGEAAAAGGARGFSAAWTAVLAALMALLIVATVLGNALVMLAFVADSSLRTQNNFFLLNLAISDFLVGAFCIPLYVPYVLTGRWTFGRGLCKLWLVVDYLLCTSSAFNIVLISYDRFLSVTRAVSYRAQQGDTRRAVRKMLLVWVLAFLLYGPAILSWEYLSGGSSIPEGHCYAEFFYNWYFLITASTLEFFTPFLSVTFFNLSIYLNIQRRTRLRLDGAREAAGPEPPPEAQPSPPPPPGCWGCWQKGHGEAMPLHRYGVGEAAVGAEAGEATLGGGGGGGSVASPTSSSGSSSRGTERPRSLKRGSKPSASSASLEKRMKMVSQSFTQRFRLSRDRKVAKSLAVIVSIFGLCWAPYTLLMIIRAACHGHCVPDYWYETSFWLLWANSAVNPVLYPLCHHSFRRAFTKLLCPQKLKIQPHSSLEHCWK
Sequence of Sigma intracellular receptor 2 (Homo sapiens) (Q5BJF2 whole entry): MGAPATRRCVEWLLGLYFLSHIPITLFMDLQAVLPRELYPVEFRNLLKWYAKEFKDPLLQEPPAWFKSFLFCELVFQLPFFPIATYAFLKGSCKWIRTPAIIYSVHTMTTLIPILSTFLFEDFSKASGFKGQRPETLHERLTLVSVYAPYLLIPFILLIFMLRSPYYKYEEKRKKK
Sequence of Alpha-2B adrenergic receptor (Homo sapiens) (P18089 whole entry): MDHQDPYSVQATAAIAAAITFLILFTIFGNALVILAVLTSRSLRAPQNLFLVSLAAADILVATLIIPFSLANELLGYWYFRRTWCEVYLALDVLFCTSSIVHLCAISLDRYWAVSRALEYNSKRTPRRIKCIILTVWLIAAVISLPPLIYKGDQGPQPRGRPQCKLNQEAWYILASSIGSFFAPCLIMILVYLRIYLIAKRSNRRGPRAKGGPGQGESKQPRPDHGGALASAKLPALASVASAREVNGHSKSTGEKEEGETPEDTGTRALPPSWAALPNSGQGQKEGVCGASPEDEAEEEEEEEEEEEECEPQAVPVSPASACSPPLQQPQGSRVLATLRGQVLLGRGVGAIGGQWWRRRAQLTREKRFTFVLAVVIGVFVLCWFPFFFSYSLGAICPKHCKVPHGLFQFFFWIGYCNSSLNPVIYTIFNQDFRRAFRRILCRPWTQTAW
Sequence of Neuronal acetylcholine receptor; alpha4/beta2 (P09483 whole entry): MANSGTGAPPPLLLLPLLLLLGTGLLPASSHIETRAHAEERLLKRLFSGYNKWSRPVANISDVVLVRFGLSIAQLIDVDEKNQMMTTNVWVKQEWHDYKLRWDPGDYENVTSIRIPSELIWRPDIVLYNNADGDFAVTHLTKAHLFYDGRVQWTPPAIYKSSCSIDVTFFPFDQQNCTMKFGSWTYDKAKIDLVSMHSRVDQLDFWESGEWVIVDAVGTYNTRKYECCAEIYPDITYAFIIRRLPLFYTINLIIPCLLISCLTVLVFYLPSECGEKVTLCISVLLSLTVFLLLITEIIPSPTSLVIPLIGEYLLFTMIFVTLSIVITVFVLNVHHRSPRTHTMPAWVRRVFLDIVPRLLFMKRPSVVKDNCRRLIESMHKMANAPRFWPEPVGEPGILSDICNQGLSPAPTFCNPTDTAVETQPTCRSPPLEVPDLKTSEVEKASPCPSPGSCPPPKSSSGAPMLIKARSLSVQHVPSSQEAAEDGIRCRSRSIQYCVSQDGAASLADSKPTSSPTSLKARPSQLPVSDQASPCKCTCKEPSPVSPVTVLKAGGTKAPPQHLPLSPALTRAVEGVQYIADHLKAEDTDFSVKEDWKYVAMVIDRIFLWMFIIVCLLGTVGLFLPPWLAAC
Sequence of Neuronal acetylcholine receptor; alpha4/beta2 (P12390 whole entry): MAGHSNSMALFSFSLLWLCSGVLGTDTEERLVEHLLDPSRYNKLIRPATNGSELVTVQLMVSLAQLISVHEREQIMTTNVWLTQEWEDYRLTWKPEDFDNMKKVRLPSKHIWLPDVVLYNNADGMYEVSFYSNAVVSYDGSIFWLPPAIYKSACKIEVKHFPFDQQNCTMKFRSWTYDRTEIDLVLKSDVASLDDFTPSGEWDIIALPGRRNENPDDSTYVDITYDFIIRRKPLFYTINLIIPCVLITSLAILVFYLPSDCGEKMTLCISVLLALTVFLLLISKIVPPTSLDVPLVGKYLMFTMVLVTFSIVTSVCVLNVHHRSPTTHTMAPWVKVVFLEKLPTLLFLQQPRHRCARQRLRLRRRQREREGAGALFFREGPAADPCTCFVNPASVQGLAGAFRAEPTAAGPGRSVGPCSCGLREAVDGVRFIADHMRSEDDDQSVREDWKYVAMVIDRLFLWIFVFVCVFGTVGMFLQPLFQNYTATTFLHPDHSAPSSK
Sequence of Alpha-1A adrenergic receptor (Homo sapiens) (P35348 whole entry): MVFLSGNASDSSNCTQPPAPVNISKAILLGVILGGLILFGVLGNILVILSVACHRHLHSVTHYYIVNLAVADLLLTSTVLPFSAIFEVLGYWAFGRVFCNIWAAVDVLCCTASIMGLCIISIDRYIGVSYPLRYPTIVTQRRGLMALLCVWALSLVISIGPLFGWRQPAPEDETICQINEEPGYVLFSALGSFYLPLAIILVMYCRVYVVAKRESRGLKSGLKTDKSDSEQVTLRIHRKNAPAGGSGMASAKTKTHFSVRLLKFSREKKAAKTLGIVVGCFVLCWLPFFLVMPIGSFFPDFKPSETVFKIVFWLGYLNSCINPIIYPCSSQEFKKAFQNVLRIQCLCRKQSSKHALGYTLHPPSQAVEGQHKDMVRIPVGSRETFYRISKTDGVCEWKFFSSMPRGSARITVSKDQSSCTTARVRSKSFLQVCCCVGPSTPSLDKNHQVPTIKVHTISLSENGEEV
Sequence of Cysteinyl leukotriene receptor 1 (Homo sapiens) (Q9Y271 whole entry): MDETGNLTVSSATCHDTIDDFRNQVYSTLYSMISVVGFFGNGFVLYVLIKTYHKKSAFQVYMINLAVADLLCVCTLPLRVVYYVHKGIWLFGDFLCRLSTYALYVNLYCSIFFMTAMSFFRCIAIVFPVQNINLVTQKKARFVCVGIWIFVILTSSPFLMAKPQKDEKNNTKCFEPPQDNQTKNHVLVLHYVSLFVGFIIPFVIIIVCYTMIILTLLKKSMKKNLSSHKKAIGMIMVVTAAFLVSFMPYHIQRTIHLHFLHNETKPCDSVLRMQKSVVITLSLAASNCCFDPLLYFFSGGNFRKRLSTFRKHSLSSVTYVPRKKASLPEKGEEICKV
Sequence of Adenosine receptor A1 (Homo sapiens) (P30542 whole entry): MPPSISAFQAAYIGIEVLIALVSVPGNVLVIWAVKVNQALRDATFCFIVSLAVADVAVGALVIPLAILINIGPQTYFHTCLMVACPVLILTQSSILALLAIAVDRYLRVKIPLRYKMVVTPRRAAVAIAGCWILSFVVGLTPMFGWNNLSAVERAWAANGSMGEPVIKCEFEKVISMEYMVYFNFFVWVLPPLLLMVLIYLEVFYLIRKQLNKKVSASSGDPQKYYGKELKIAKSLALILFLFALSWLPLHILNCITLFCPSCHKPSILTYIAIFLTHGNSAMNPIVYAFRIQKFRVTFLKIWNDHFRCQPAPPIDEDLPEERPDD
Sequence of 5-hydroxytryptamine receptor 4 (Homo sapiens) (Q13639 whole entry): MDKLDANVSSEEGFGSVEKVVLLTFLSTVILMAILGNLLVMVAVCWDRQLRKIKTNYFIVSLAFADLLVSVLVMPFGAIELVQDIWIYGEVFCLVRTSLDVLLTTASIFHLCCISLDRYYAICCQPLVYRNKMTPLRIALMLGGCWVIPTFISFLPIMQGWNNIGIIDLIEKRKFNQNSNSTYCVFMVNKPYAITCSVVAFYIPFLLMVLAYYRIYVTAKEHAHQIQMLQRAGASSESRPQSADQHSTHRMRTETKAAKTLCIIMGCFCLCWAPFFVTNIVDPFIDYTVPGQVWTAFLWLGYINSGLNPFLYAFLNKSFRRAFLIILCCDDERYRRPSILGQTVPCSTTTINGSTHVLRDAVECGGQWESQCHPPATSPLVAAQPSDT
Sequence of D(2) dopamine receptor (Homo sapiens) (P14416 whole entry): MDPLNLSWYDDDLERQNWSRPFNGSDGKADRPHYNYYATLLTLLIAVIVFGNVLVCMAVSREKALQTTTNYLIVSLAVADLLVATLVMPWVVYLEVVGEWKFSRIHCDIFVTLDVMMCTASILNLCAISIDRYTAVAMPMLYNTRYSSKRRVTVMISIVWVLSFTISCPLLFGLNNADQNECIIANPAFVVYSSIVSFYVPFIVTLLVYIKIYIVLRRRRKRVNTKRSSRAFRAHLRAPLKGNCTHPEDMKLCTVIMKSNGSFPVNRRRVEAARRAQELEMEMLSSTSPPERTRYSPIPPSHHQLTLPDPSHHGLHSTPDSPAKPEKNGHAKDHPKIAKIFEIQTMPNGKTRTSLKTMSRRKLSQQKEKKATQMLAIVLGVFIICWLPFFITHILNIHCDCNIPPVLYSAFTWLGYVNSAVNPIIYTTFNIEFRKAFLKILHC
Sequence of Thromboxane A2 receptor (Homo sapiens) (P21731 whole entry): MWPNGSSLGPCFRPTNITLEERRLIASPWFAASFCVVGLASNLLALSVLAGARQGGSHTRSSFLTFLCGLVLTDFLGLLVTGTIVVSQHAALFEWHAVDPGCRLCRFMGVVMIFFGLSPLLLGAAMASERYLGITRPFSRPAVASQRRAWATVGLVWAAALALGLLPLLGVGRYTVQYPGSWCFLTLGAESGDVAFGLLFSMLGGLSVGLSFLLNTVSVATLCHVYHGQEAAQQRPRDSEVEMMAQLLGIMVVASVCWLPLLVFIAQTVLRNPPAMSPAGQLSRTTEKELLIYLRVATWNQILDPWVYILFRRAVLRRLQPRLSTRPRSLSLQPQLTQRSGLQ
Sequence of 5-hydroxytryptamine receptor 1D (Homo sapiens) (P28221 whole entry): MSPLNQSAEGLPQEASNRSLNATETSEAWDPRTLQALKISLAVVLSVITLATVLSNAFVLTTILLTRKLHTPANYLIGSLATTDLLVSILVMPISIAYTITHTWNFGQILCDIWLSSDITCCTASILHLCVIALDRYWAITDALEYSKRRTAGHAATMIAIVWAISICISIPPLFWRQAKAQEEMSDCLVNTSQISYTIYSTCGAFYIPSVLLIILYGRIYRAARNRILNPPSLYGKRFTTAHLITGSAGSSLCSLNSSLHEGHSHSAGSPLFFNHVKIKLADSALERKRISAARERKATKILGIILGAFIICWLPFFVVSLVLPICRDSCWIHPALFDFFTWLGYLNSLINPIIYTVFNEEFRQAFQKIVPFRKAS

Question: `CN1C(=O)CC[C@H]1c1cccnc1` [COTININE] was tested. Which inhibition [1] did it give?
Answer: The inhibition was under 50%.

Question: And the inhibition (Homo sapiens [2])?
Answer: Its inhibition is under 50%.

Question: And the inhibition (Homo sapiens [3])?
Answer: Its inhibition is under 50%.

Question: What about the inhibition (Homo sapiens [4]) of the same compound?
Answer: The inhibition was under 50%.

Question: And the inhibition (Homo sapiens [5])?
Answer: The inhibition was under 50%.

Question: What about the inhibition [6] of the same compound?
Answer: Its inhibition is under 50%.

Question: What about the inhibition [7] of the same compound?
Answer: Its inhibition is under 50%.

Question: And the inhibition [8]?
Answer: The inhibition was under 50%.

Question: And the inhibition [9]?
Answer: The inhibition was under 50%.

Question: And the inhibition [10]?
Answer: The inhibition was under 50%.

Question: And the inhibition [11]?
Answer: Its inhibition is under 50%.

Question: And the inhibition [12]?
Answer: Its inhibition is under 50%.

Question: What about the inhibition [13] of the same compound?
Answer: Its inhibition is under 50%.

Question: And the inhibition (Acetylcholinesterase)?
Answer: Its inhibition is under 50%.

Question: What about the inhibition [14] of the same compound?
Answer: The inhibition was under 50%.

Question: And the inhibition [15]?
Answer: Its inhibition is under 50%.

Question: And the inhibition [16]?
Answer: The inhibition was under 50%.

Question: And the inhibition [17]?
Answer: Its inhibition is under 50%.

Question: What about the inhibition [18] of the same compound?
Answer: Its inhibition is under 50%.

Question: And the inhibition [19]?
Answer: The inhibition was under 50%.

Question: What about the inhibition [20] of the same compound?
Answer: The inhibition was under 50%.

Question: And the inhibition [21]?
Answer: Its inhibition is under 50%.

Question: And the inhibition [22]?
Answer: Its inhibition is under 50%.

Question: What about the inhibition [23] of the same compound?
Answer: The inhibition was under 50%.

Question: What about the inhibition (Homo sapiens [24]) of the same compound?
Answer: The inhibition was under 50%.

Question: And the inhibition (D(3) dopamine receptor)?
Answer: The inhibition was under 50%.

Question: And the Ki [25]?
Answer: Its Ki is 3 µM.

Question: What about the inhibition [26] of the same compound?
Answer: The inhibition was under 50%.

Question: And the inhibition (Homo sapiens [27])?
Answer: Its inhibition is under 50%.

Question: What about the inhibition [28] of the same compound?
Answer: The inhibition was under 50%.

Question: And the inhibition (Homo sapiens [29])?
Answer: The inhibition was under 50%.

Question: What about the inhibition (Homo sapiens [30]) of the same compound?
Answer: Its inhibition is under 50%.

Question: And the inhibition [31]?
Answer: Its inhibition is under 50%.

Question: And the inhibition (Histamine H3 receptor)?
Answer: The inhibition was under 50%.

Question: What about the inhibition [32] of the same compound?
Answer: The inhibition was under 50%.

Question: What about the inhibition (Homo sapiens [33]) of the same compound?
Answer: Its inhibition is under 50%.

Question: And the inhibition [34]?
Answer: Its inhibition is under 50%.

Question: What about the inhibition [35] of the same compound?
Answer: The inhibition was under 50%.

Question: And the inhibition [36]?
Answer: The inhibition was under 50%.

Question: And the inhibition at 10 µM (L-type calcium channel)?
Answer: Its inhibition at 10 µM is under 50%.

Question: What about the inhibition (Homo sapiens [37]) of the same compound?
Answer: The inhibition was under 50%.
